Assay results reported in patent US11873291B2, “Quinoline cGAS antagonist compounds” (ImmuneSensor Therapeutics, Inc., priority 2020, dated 2024).

The compounds below were run against T1, recombinant human cGAS (aa147-522) (Homo sapiens, UniProt Q8N884) (assay: In vitro inhibition assay of cGAS activity (ATP consumption, KinaseGlo Max)). Conditions: Table 2, read-out: cGAS Inhibition Results IC50.
T1 construct: recombinant human cGAS (aa147-522); His6-SUMO (cleaved yes); made in house; host or cells: E. coli BL21/pLys
T1 sequence (Q8N884 147-522): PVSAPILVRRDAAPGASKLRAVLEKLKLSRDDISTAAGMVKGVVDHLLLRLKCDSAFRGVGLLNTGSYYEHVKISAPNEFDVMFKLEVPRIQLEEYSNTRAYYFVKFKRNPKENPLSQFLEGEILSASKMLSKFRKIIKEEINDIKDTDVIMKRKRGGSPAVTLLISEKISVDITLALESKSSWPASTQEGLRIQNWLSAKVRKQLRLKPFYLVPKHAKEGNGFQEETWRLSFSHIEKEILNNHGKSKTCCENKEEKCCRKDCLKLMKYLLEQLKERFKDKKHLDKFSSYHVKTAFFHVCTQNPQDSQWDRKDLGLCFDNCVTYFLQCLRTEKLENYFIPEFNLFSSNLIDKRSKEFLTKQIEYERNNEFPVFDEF
Format: biochemical
In short: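 IC50 came from plotting % ATP consumption against log compound concentration, with leftover ATP detected by KinaseGlo Max chemiluminescence. Reactions ran 20 min at 37 °C with 1.5 μg/mL human cGAS (aa147-522), 6.6 μM ATP, 0.1 mM GTP and 0.01 mg/mL DNA at pH 7.5.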

Structure (SMILES) | IC50
Clc1ccc2c(-c3cn[nH]c3)cc(NCC3CNCCO3)nc2c1Cl (stereo not shown) [I-220] | 2 to 30 µM
COc1c(Br)ccc2c(-n3ccnc3)cc(-c3cccc(C(=O)O)c3)nc12 [I-48, 3-(7-Bromo-4-(1H-imidazol-1-yl)-8-methoxyquinolin-2-yl)benzoic acid] | < 2 µM
O=C(O)CN(CC(=O)O)c1cc(-n2ccnc2)c2ccc(Cl)c(Cl)c2n1 [I-174] | < 2 µM
O=C1NC(=O)/C(=C\CCc2cc(-c3cn[nH]c3)c3ccc(Cl)c(Cl)c3n2)S1 [I-274, (E)-5-(3-(7,8-Dichloro-4-(1H-pyrazol-4-yl)quinolin-2-yl)propylidene)thiazolidine-2,4-dione] | 2 to 30 µM
O=C(O)[C@@H]1C[C@@H](Oc2ccccc2)CN1c1cc(-c2cn[nH]c2)c2ccc(Cl)c(Cl)c2n1 [I-361] | 2 to 30 µM
O=P(O)(O)CNc1cc(-c2cn[nH]c2)c2ccc(Cl)c(Cl)c2n1 [I-254, (7,8-dichloro-4-(1H-pyrazol-4-yl)quinolin-2-ylamino)methylphosphonic acid] | < 2 µM
COc1ccc(-c2cc(-n3ccnc3)c3ccc(Cl)c(Cl)c3n2)cc1O [I-41] | < 2 µM
Cc1cc(NCCO)c2ccc(Cl)c(Cl)c2n1 [I-304] | > 30 µM
O=C(O)[C@@H]1CN(c2cc(-n3ccnc3)c3ccc(Cl)cc3n2)CC[C@@H]1O [I-136] | 2 to 30 µM
Clc1ccc2c(-c3cn[nH]c3)cc(NCCN3CCOCC3)nc2c1Cl [I-213] | 2 to 30 µM
CN(CCN(C)S(N)(=O)=O)c1cc(-n2ccnc2)c2ccc(Cl)c(Cl)c2n1 [I-224] | < 2 µM
O=C(O)c1cc(OCCO)cc(-c2cc(-n3ccnc3)c3ccc(Cl)cc3n2)c1 [I-29] | < 2 µM
Brc1ccc2c(-n3cncn3)ccnc2c1 [I-418] | > 30 µM
CCOc1ccc(-c2cc(-n3ccnc3)c3ccc(Cl)cc3n2)cc1C(=O)O [I-19, 5-(7-chloro-4-(1H-imidazol-1-yl)quinolin-2-yl)-2-ethoxybenzoic acid] | < 2 µM
O=C(O)CC1CCCN(c2cc(-n3ccnc3)c3ccc(Cl)cc3n2)C1 (stereo not shown) [I-123, 2-(1-(7-chloro-4-(1H-imidazol-1-yl)quinolin-2-yl)piperidin-3-yl)acetic acid] | 2 to 30 µM
O=C(O)c1cc(Br)cc(-c2cc(-n3ccnc3)c3ccc(Cl)cc3n2)c1 [I-27] | > 30 µM
CC(C)(C)OC(=O)N1CCOC(CNc2cc(-c3cn[nH]c3)c3ccc(Cl)c(Cl)c3n2)C1 (stereo not shown) [I-399] | 2 to 30 µM
CN(CCS(N)(=O)=O)c1cc(-n2ccnc2)c2ccc(Cl)c(Cl)c2n1 [I-204] | < 2 µM
O=C(O)C1CN(c2cc(-n3ccnc3)c3ccc(Cl)c(Cl)c3n2)CCO1 (stereo not shown) [I-91] | < 2 µM
Clc1ccc2c(-n3ccnc3)cc(N3CCC(c4nn[nH]n4)C3)nc2c1 (stereo not shown) [I-155] | 2 to 30 µM
CN(CCC(=O)N1CCC[C@H]1C(=O)O)c1cc(-c2cn[nH]c2)c2ccc(Cl)c(Cl)c2n1 [I-389] | < 2 µM
OCCN(CCN1CCOCC1)c1cc(-c2cn[nH]c2)c2ccc(Cl)c(Cl)c2n1 [I-218] | < 2 µM
COc1ccccc1-c1cc(-n2ccnc2)c2ccc(Br)cc2n1 [I-381] | > 30 µM
O=C(O)CNC(=O)C[C@@H]1CCCN1c1cc(-c2cn[nH]c2)c2ccc(Cl)c(Cl)c2n1 [I-326] | < 2 µM

Structure (SMILES) | IC50
CN(CCNS(=O)(=O)c1ncc[nH]1)c1cc(-n2ccnc2)c2ccc(Cl)cc2n1 [I-230] | 2 to 30 µM
Cc1cc(NC2CCNC2=O)c2ccc(Cl)c(Cl)c2n1 (stereo not shown) [I-315] | > 30 µM
Brc1ccc2c(-n3ccnc3)cc(-c3ccncc3)nc2c1 [I-383] | > 30 µM
CCOc1cc(-n2ccnc2)c2ccc(Cl)cc2n1 [I-280] | > 30 µM
Brc1ccc2nccc(-n3cccn3)c2c1 [I-415] | > 30 µM
O=C(O)CN(CCCO)c1cc(-n2ccnc2)c2ccc(Cl)c(Cl)c2n1 [I-173] | 2 to 30 µM
OCCNc1cc(-n2ccnc2)c2ccc(Cl)c(Cl)c2n1 [I-239] | < 2 µM
O=C(O)c1cc2c(c(-c3cc(-n4ccnc4)c4ccc(Cl)cc4n3)c1)OC(F)(F)O2 [I-38] | > 30 µM
O=C(O)CNc1cc(-c2cn[nH]c2)c2ccc(Cl)c(Cl)c2n1 [I-177, (7,8-dichloro-4-(1H-pyrazol-4-yl)quinolin-2-yl)glycine] | 2 to 30 µM
CN(CC(=O)O)c1cc(-n2ccnc2)c2ccc(Cl)cc2n1 [I-167] | < 2 µM
O=C(O)C1CCN(c2cc(-n3ccnc3)c3ccc(Cl)cc3n2)CC1 [I-127] | 2 to 30 µM
O=C(NO)[C@@H]1CCCN(c2cc(-n3ccnc3)c3ccc(Cl)cc3n2)C1 [I-137, (R)-1-(7-chloro-4-(1H-imidazol-1-yl)quinolin-2-yl)-N-hydroxypiperidine-3-carboxamide] | 2 to 30 µM
Clc1ccc2c(-c3cccnc3)cc(-c3ccccc3)nc2c1 [I-69] | > 30 µM
O=C(O)CNCCCc1cc(-c2cn[nH]c2)c2ccc(Cl)c(Cl)c2n1 [I-336, (3-(7,8-dichloro-4-(1H-pyrazol-4-yl)quinolin-2-yl)propyl)glycine] | 2 to 30 µM
CC(C)(C)c1ccc2c(-c3cn[nH]c3)cc(NCCS(N)(=O)=O)nc2c1 [I-268] | > 30 µM
O=C(O)CNc1cc(-c2cn[nH]c2)nc2cc(Cl)cc(Cl)c12 [I-300] | > 30 µM
NS(=O)(=O)CCNc1cc(-c2cn[nH]c2)c2ccc(Cl)c(F)c2n1 [I-262] | < 2 µM
C[C@@]1(C(=O)O)CCCN1c1cc(-n2ccnc2)c2ccc(Cl)c(Cl)c2n1 [I-436] | 2 to 30 µM
O=[PH](O)OCC1CCCN(c2cc(-c3cn[nH]c3)c3ccc(Cl)c(Cl)c3n2)C1 (stereo not shown) [I-329] | < 2 µM
O=C(O)[C@@H]1C[C@@H](OCc2ccccc2)CN1c1cc(-c2cn[nH]c2)c2ccc(Cl)c(Cl)c2n1 [I-438] | 2 to 30 µM
N#Cc1cn(-c2cc(-c3ccccc3)nc3cc(Cl)ccc23)cn1 [I-62] | > 30 µM
O[C@@H]1CCCN(c2cc(-n3ccnc3)c3ccc(Cl)c(Cl)c3n2)C1 [I-134] | 2 to 30 µM
O=C(O)C1CCCN(c2cc(-n3ccnc3)c3ccc(Cl)cc3n2)CC1 (stereo not shown) [I-363] | 2 to 30 µM

Same assay, conditions: Table 3, read-out: cGAS Inhibition Results IC50

Structure (SMILES) | IC50
O=C(O)[C@@H]1CC[C@@H](CCO)N1c1cc(-n2ccnc2)c2ccc(Cl)c(Cl)c2n1 [I-783, (2S,5S)-1-(7,8-dichloro-4-(1H-imidazol-1-yl)quinolin-2-yl)-5-(2-hydroxyethyl)pyrrolidine-2-carboxylic acid] | < 2 µM
O=C(O)CCOCC(CO)Nc1cc(-n2ccnc2)c2ccc(Cl)c(Cl)c2n1 (stereo not shown) [I-873] | < 2 µM
O=C(O)[C@H](O)[C@@H]1CCCN1c1cc(-n2ccnc2)c2ccc(Cl)c(Cl)c2n1 [I-661, (R)-2-((S)-1-(7,8-dichloro-4-(1H-imidazol-1-yl)quinolin-2-yl)pyrrolidin-2-yl)-2-hydroxyacetic acid] | < 2 µM
CN(CCS(=O)(=O)N1CCC(C(=O)O)C1)c1cc(-n2ccnc2)c2ccc(Cl)c(Cl)c2n1 (stereo not shown) [I-627] | < 2 µM
CC1(C)C[C@@H](C(=O)O)N(c2cc(-n3ccnc3)c3ccc(Cl)c(Cl)c3n2)C1 [I-479] | < 2 µM
COC(=O)c1cccn1-c1cc(-n2ccnc2)c2ccc(Cl)c(Cl)c2n1 [I-458] | 2 to 30 µM
CN(CCC(=O)N1CCC(S(N)(=O)=O)C1)c1cc(-n2ccnc2)c2ccc(Cl)c(Cl)c2n1 (stereo not shown) [I-566] | < 2 µM
COC(=O)CNC(=O)C[C@@H]1CCCN1c1cc(-n2ccnc2)c2ccc(Cl)c(Cl)c2n1 [I-531] | < 2 µM
CN(CCC(=O)O)C(=O)CCN(C)c1cc(-n2ccnc2)c2ccc(Cl)c(Cl)c2n1 [I-564] | < 2 µM
COC(=O)[C@@H]1CC[C@H](C)N1c1cc(-n2ccnc2)c2ccc(Cl)c(Cl)c2n1 [I-574] | 2 to 30 µM
O=C(O)[C@@H]1C[C@@H](O)CN1c1cc(-n2ccnc2)c2ccc(Cl)c(Cl)c2n1 [I-514] | < 2 µM
O=C(O)CCOC[C@@H]1[C@@H]2C[C@@H]2CN1c1cc(-n2ccnc2)c2ccc(Cl)c(Cl)c2n1 (stereo in doubt) [I-809] | < 2 µM
COC(=O)[C@@H]1C[C@H](C(F)(F)F)CN1c1cc(-n2ccnc2)c2ccc(Cl)c(Cl)c2n1 [I-462] | 2 to 30 µM
O=C(O)c1ccn(CC[C@@H]2CCCN2c2cc(-n3ccnc3)c3ccc(Cl)c(Cl)c3n2)n1 [I-731] | < 2 µM
O=C(O)CO[C@H]1CCN(c2cc(-n3ccnc3)c3ccc(Cl)c(Cl)c3n2)C1 [I-770] | < 2 µM
O=C(O)[C@@H]1[C@H]2C[C@H]2CN1c1cc(-n2ccnc2)c2ccc(Cl)c(Cl)c2n1 [I-480] | < 2 µM
O=C(O)c1cccc(S(=O)(=O)NC[C@@H]2CCCN2c2cc(-n3ccnc3)c3ccc(Cl)c(Cl)c3n2)c1 [I-638] | 2 to 30 µM
O=C(O)CS(=O)(=O)NC[C@@H]1CCCN1c1cc(-n2ccnc2)c2ccc(Cl)c(Cl)c2n1 [I-639] | < 2 µM
CN(CCNS(=O)(=O)c1ccc(C(=O)O)cc1)c1cc(-n2ccnc2)c2ccc(Cl)c(Cl)c2n1 [I-612] | 2 to 30 µM
COC(=O)C1N(c2cc(-n3ccnc3)c3ccc(Cl)c(Cl)c3n2)CCC1(C)C (stereo not shown) [I-587] | 2 to 30 µM
CN(CCC(=O)O)C[C@@H]1CCCN1c1cc(-n2ccnc2)c2ccc(Cl)c(Cl)c2n1 [I-754, (S)-3-(((1-(7,8-dichloro-4-(1H-imidazol-1-yl)quinolin-2-yl)pyrrolidin-2-yl)methyl)(methyl)amino)propanoic acid] | 2 to 30 µM
O=C(C[C@@H]1CCCN1c1cc(-n2ccnc2)c2ccc(Cl)c(Cl)c2n1)N1CCC(c2nnn[nH]2)C1 (stereo partly shown) [I-536] | < 2 µM
O=C(O)[C@@H]1SCCN1c1cc(-n2ccnc2)c2ccc(Cl)c(Cl)c2n1 [I-486] | < 2 µM
O=C(O)[C@@H]1C[C@H](F)CN1c1cc(-n2ccnc2)c2ccc(Cl)c(Cl)c2n1 [I-466] | < 2 µM
NC(=O)[C@@H]1C[C@@H](O)CN1c1cc(-n2ccnc2)c2ccc(Cl)c(Cl)c2n1 [I-502] | 2 to 30 µM
O=C(C[C@@H]1CCCN1c1cc(-n2ccnc2)c2ccc(Cl)c(Cl)c2n1)NS(=O)(=O)C(F)F [I-540] | < 2 µM
